What was measured:
PIKfyve = PIKfyve (Homo sapiens, UniProt Q9Y2I7); details: cited from earlier work
[1] = Home-cage feeding study with suboptimal leptin (leptin sensitization); type: in vivo, mouse
Source text: Leptin is secreted by adipocytes in proportion to their triglyceride content, signaling to the CNS when peripheral energy stores are full and food consumption should decrease. In HFD-fed mice, chronic increases in adiposity lead to elevations in circulating leptin with no accompanying decrease in food intake, a state that has been termed leptin-resistant. Reducing leptin levels in the blood restores leptin signaling in the hypothalamus (S. Zhao, et al., 2019, cited supra). Thus, the sphingolipid-like compound 893 should function as a leptin-sensitizing agent. To test this model, 18 week old lean, male C57BL/6J mice were treated intraperitoneally with a suboptimal dose of recombinant leptin at ZT8.5 and food intake and body weight measured over the next 18 h. […] In summary, the reduction in food intake in sphingolipid-like compound 893-treated mice is consistent with the reversal of mitochondrial fragmentation in the hypothalamus and likely due in part to the re-sensitization of anorexigenic POMG neurons to leptin when plasma leptin levels are decreased.
Mice were singly housed and allowed to acclimate for 72 h before food intake was monitored. Food consumption was determined by monitoring the weight of food in the hopper. Initial food and body weight measurements were taken at ZT9 and final measurements were taken 16 h later to capture the active period where most consumption occurred. Home cage feeding studies were performed with C57BL/6J mice maintained on a HFD for 24 weeks (33 weeks of age), or ob/ob mice at 8 weeks of age. Mice received vehicle or 120 mg/kg sphingolipid-like compound 893 by gavage at ZT8.5. For experiments involving leptin, 18 week old, SD fed (16% kcal from fat, 2020×, Envigo) C57BL/6J mice received vehicle or 120 mg/kg sphingolipid-like compound 893 by gavage at ZT8.5. […] One ob/ob mouse died during Echo MRI for unknown reasons after 6 d of treatment with sphingolipid-like compound 893; data from this mouse was analyzed prior to death.

[2] = system: mouse embryonic fibroblasts (MEFs); assay: Ceramide-induced (C16:0 CER, C2-ceramide) mitochondrial fragmentation; type: cell-based; details: MEFs, 893 5 μM
Procedure: 3T3-L1 cells were maintained in DMEM with 10% FBS and 1% penicillin-streptomycin until induced to differentiate. 3T3-L1 pre-adipocytes were differentiated as described in (M. P. Valley, et al., Anal. Biochem. 505: 43-50, 2016, the disclosure of which is incorporated herein by reference) with slight modifications. Briefly, pre-adipocytes were grown to confluence. After 2 d, cells were induced with maintenance media containing 500 μM IBMX (15879, Sigma-Aldrich, St. Louis, Mo.), 1 μM dexamethasone (D4902, Sigma-Aldrich), 5 μg/mL bovine insulin (10516, Sigma-Aldrich), and 5 μM troglitazone (50-115-0786, ApexBio). Media was changed every 2-3 d for 7 d. On day 7 post-induction, media was changed to maintenance media+5 μg/mL bovine insulin. On day 9 post-induction, media was changed to maintenance media. Mature adipocytes were used 12-14 d post-induction for all experiments. LSL-KrasG12D mouse embryonic fibroblasts (MEFs) with and without Cre-mediated deletion of the STOP cassette were obtained from David Tuveson (Cold Spring Harbor Laboratory, Cold Spring Harbor N.Y., USA) in 2000. p53^flox/flox MEFs were derived in house (2015) from C57BL/6 mice using standard techniques and immortalized by transient expression of Cre recombinase and deletion of p53. MEFs were cultured and maintained in DMEM with 10% FBS and 1% penicillin-streptomycin. A549 cells were cultured in DMEM with 10% FBS, 1% penicillin-streptomycin and 1% sodium pyruvate. Stock solution of palmitic acid (ACROS Organics, cat # AC129702500) was prepared at 100 mM in ethanol. Palmitate (250 μM) was conjugated to 1% (w/v) fatty-acid free bovine serum albumin (Sigma, A8806) in DMEM at 37° C. for 20 min. For all immunofluorescence assays, 8,000 MEFs were seeded into 8-chamber slides (Cellvis, cat # C8-1.5H-N) 12-16 h before treatment. Cells were pre-treated with sphingolipid-like compound 893 (5 μM in water), myriocin (10 μM in methanol), fumonisin-B1 (30 μM in DMSO), or celastrol (500 nM in DMSO) for 3 h followed by a 3 h treatment with BSA-conjugated palmitate mixture or BSA alone. Where cells were treated with C2-ceramide (50 μM in DMSO) or C16:0 ceramide (100 μM in ethanol) for 3 h, cells were pre-treated with sphingolipid-like compound 893 for 1-3 h as indicated, mdivi-1 (50 μM in DMSO) for 1 h or 24 h, M1 (5 μM in DMSO) for 24 h, mdivi-1 and M1 together for 24 h, leflunomide (50 μM in methanol) for 1 h or 24 h, or with P110 (1 μM in water) for 1 h or 12 h. LSL or KRAS^G12D MEFs were treated with sphingolipid-like compound 893 (5 μM) for 6 h prior to fixation.
MEFs were washed twice with PBS and fixed with 4% paraformaldehyde for 10 min at RT. Cells were permeabilized with 0.3% Triton X-100 in blocking buffer containing 10% fetal bovine serum for 20 min at 37° C. followed by overnight incubation with mouse anti-citrate synthase (sc-390693, Santa Cruz Biotechnology; dilution, 1:200) or rabbit-anti-DRP1 at 1:100 (#8570, Cell Signaling Technology) at 4° C. Cells were then washed twice with PBS and incubated with AlexaFluor 488 goat anti-mouse (A28175, Invitrogen) or AlexaFluor 594 donkey anti-rabbit (A32754, Invitrogen) secondary antibodies at RT followed by 5 min incubation with 1 μg/ml DAPI and 2 washes in PBS. For NADH autofluorescence studies, mice were gavaged with vehicle or 120 mg/kg sphingolipid-like compound 893 at ZT8.5 (4-10.5 h before sacrifice between ZT12.5 and ZT18). Post sacrifice, livers were excised, washed 3× with PBS, placed in DMEM supplemented with 10% FBS and 1% penicillin-streptomycin, and immediately imaged. NADH/NADPH autofluorescence was detected with 740 nm excitation and 450±50 nm detectors using a Mai Tai two-photon laser. Fluorescence microscopy was performed on a Zeiss LSM 780 confocal using a 63× oil objective with a […] numerical aperture (NA) or using a Nikon TE2000-S inverted epifluorescence microscope with a 100× oil objective (1.3 NA) and a Photometrics CoolSNAP ES2 monochrome CCD camera. […]

Chain of PIKfyve (Q9Y2I7 whole entry, species assumed): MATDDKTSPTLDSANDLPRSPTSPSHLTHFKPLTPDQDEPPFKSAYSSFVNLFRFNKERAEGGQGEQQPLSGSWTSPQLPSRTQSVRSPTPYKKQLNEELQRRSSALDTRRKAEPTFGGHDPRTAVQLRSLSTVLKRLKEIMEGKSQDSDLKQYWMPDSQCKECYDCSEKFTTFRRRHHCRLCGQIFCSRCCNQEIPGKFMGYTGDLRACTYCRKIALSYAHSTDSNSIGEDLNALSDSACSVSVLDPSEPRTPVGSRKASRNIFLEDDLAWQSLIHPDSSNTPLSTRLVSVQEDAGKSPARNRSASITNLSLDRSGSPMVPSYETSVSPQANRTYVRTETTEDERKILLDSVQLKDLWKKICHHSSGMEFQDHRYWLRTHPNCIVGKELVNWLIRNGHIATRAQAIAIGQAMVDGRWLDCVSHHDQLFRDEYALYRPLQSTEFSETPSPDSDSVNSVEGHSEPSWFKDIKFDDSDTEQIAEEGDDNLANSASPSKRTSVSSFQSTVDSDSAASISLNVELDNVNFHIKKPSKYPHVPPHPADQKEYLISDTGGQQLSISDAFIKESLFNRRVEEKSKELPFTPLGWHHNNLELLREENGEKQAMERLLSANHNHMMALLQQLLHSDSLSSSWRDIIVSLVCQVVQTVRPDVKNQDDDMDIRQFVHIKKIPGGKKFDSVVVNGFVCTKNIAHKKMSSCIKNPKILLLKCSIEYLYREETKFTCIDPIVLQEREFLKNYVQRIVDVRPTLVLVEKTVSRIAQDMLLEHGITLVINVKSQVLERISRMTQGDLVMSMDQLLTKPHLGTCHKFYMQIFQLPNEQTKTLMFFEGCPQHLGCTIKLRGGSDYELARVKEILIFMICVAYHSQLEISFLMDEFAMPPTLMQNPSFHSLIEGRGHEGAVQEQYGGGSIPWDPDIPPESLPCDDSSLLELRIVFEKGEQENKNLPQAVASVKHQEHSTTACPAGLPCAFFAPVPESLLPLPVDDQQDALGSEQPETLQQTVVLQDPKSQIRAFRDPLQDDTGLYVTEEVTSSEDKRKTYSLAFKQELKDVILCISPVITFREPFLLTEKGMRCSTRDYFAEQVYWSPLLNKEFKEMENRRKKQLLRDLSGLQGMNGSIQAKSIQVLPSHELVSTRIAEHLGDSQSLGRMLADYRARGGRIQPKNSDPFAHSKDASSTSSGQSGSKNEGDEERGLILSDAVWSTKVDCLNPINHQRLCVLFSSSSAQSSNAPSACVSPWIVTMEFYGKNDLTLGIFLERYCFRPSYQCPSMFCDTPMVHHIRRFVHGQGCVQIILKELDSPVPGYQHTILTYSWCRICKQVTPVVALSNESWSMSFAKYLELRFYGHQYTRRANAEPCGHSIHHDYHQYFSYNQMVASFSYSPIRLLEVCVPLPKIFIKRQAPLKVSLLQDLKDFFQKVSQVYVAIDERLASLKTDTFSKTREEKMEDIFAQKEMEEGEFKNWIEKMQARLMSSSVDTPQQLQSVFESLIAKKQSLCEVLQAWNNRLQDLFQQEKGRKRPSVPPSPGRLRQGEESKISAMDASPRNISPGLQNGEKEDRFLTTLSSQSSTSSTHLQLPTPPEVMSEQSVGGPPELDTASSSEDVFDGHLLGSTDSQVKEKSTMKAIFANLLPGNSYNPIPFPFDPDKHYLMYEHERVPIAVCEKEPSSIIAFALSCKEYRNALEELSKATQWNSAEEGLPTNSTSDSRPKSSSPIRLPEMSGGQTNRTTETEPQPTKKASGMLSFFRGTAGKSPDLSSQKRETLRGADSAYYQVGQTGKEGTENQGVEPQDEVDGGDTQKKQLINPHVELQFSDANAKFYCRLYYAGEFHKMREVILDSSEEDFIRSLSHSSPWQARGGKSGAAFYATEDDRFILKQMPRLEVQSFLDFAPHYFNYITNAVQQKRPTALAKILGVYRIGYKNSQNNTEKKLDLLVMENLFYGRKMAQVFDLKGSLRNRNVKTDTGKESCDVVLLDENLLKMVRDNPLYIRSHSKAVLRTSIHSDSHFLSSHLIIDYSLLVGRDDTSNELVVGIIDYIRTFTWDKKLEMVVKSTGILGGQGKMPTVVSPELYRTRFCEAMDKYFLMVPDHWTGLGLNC

For `CCCCCCCCc1ccc([C@H]2CCN[C@@H]2CO)cc1.Cl` [compound 893], the “Effect on PIKfyve” value (PIKfyve) is listed as “inactivates”, the “Food intake and body weight over 18 h, single agent” value ([1]; lean chow-fed 18 week old mice, leptin 2 mg/kg i.p. or 893 120 mg/kg by gavage) is listed as “trend towards reduced food intake and body weight” and the “Food intake and body weight over 18 h, combined with leptin” value ([1]; lean chow-fed mice, 893 120 mg/kg by gavage plus leptin 2 mg/kg i.p.) is listed as “statistically significant decrease in food intake and body weight”. The “Pre-treatment time after which the compound was effective against C16:0 ceramide-induced fragmentation” value [2] was 1 h and the “Protection from ceramide-induced mitochondrial fragmentation” value ([2]; C16:0 CER 100 μM or C2-ceramide 50 μM 3 h, mdivi-1 50 μM, M1 5 μM, leflunomide 50 μM, P110 1 μM) was “blocked ceramide-induced mitochondrial fragmentation”.
